Legend:
[1] = test system: Enterococcus faecalis (ATCC 29212); test: Antibiotic susceptibility by glucose consumption in culture medium, blood culture bottle inoculum (Example 1); assay type: cell-based; conditions: for Glucose concentration t=0: 0 minutes; for Glucose concentration t=60: 60 minutes; for Glucose concentration t=120: 120 minutes; for Glucose concentration t=180: 180 minutes; for dC/dT: rate of change in glucose concentration; for Glucose concentration t=240: 240 minutes;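 on dC/dT: rate calculated between the 60 and 180 min readings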
Description: (§1) Strains of Escherichia coli (ATCC 25922), Enterococcus faecalis (ATCC 29212) and Staphylococcus aureus (ATCC 29213) were inoculated in blood culture bottles (SVA, Uppsala, Sweden) and cultivated according to the manufacturer's instructions until positive.
(§2) Medium from each blood culture bottle was diluted 1:100 with cation adjusted Mueller-Hinton broth (SVA, Uppsala, Sweden) supplemented with glucose to a concentration of 1.0 mg/mL.
(§3) Table 1: Concentrations of antibiotic agents are given in µg/mL.
(§4) Glucose concentrations were measured at 0, 60, 120, 180, and 240 minutes using a WaveSense Jazz glucometer (AgaMatrix, Inc., Salem, NH, USA) with accompanying test strips.
(§5) Susceptibility scores corresponding to MIC values were calculated as described above. A 80% threshold was applied, i.e. the lowest concentration of antibiotic that entailed a rate of change in glucose concentration that was equal to or less than 80% of the reference was selected as the Minimal Inhibitory Concentration. The rate of change was calculated between the measurements at 60 and 180 minutes.

[2] = test system: Staphylococcus aureus (ATCC 29213); test: as above; assay type: cell-based; conditions: for Glucose concentration t=0: 0 minutes; for Glucose concentration t=60: 60 minutes; for Glucose concentration t=120: 120 minutes; for Glucose concentration t=180: 180 minutes; for Glucose concentration t=240: 240 minutes; for dC/dT: rate of change in glucose concentration
Description: as §1, §2, §3, §4, §5

[3] = test system: Staphylococcus aureus ATCC 29213; conditions: S.aureus, cited from earlier work
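Wherever dC/dT is given: rate calculated between the 60 and 180 min readings.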

Gentamicin
MIC Measured ([1]; E.faecalis, 80% threshold of rate of change vs reference, between 60 and 180 minutes, obtained in 4 hours): 2 µg/mL
F=the rate of change in glucose concentration in relation to the reference ([1]; [Ab] 0,5 µg/mL): 148%
Glucose concentration t=0 ([1]; [Ab] 0,5 µg/mL): 146
Glucose concentration t=60 ([1]; [Ab] 0,5 µg/mL): 160
Glucose concentration t=120 ([1]; [Ab] 0,5 µg/mL): 138
Glucose concentration t=180 ([1]; [Ab] 0,5 µg/mL): 97
dC/dT ([1]; [Ab] 0,5 µg/mL): 53
F=the rate of change in glucose concentration in relation to the reference ([1]; [Ab] 0,25 µg/mL): 144%
Glucose concentration t=0 ([1]; [Ab] 0,25 µg/mL): 142
Glucose concentration t=60 ([1]; [Ab] 0,25 µg/mL): 156
Glucose concentration t=120 ([1]; [Ab] 0,25 µg/mL): 143
Glucose concentration t=180 ([1]; [Ab] 0,25 µg/mL): 87
dC/dT ([1]; [Ab] 0,25 µg/mL): 52
F=the rate of change in glucose concentration in relation to the reference ([1]; [Ab] 1 µg/mL): 106%
Glucose concentration t=0 ([1]; [Ab] 1 µg/mL): 145
Glucose concentration t=60 ([1]; [Ab] 1 µg/mL): 150
Glucose concentration t=120 ([1]; [Ab] 1 µg/mL): 138
Glucose concentration t=180 ([1]; [Ab] 1 µg/mL): 100
Glucose concentration t=240 ([1]; [Ab] 1 µg/mL): 36
dC/dT ([1]; [Ab] 1 µg/mL): 38
F=the rate of change in glucose concentration in relation to the reference ([1]; [Ab] 2 µg/mL): 75%
Glucose concentration t=0 ([1]; [Ab] 2 µg/mL): 147
Glucose concentration t=60 ([1]; [Ab] 2 µg/mL): 156
Glucose concentration t=120 ([1]; [Ab] 2 µg/mL): 143
Glucose concentration t=180 ([1]; [Ab] 2 µg/mL): 110
Glucose concentration t=240 ([1]; [Ab] 2 µg/mL): 75
dC/dT ([1]; [Ab] 2 µg/mL): 27
F=the rate of change in glucose concentration in relation to the reference ([1]; [Ab] 4 µg/mL): 46%
Glucose concentration t=0 ([1]; [Ab] 4 µg/mL): 147
Glucose concentration t=60 ([1]; [Ab] 4 µg/mL): 154
Glucose concentration t=120 ([1]; [Ab] 4 µg/mL): 151
Glucose concentration t=180 ([1]; [Ab] 4 µg/mL): 118
Glucose concentration t=240 ([1]; [Ab] 4 µg/mL): 104
dC/dT ([1]; [Ab] 4 µg/mL): 17
F=the rate of change in glucose concentration in relation to the reference ([1]; [Ab] 8 µg/mL): 14%
Glucose concentration t=0 ([1]; [Ab] 8 µg/mL): 143
Glucose concentration t=60 ([1]; [Ab] 8 µg/mL): 155
Glucose concentration t=120 ([1]; [Ab] 8 µg/mL): 134
Glucose concentration t=180 ([1]; [Ab] 8 µg/mL): 136
Glucose concentration t=240 ([1]; [Ab] 8 µg/mL): 140
dC/dT ([1]; [Ab] 8 µg/mL): 5
F=the rate of change in glucose concentration in relation to the reference ([1]; [Ab] 16 µg/mL): 18%
Glucose concentration t=0 ([1]; [Ab] 16 µg/mL): 147
Glucose concentration t=60 ([1]; [Ab] 16 µg/mL): 160
Glucose concentration t=120 ([1]; [Ab] 16 µg/mL): 152
Glucose concentration t=180 ([1]; [Ab] 16 µg/mL): 155
dC/dT ([1]; [Ab] 16 µg/mL): 6
F=the rate of change in glucose concentration in relation to the reference ([1]; [Ab] 32 µg/mL): 3%
Glucose concentration t=0 ([1]; [Ab] 32 µg/mL): 143
Glucose concentration t=60 ([1]; [Ab] 32 µg/mL): 151
Glucose concentration t=180 ([1]; [Ab] 32 µg/mL): 142
Glucose concentration t=240 ([1]; [Ab] 32 µg/mL): 148
dC/dT ([1]; [Ab] 32 µg/mL): 1
MIC Measured ([2]; S.aureus, 80% threshold of rate of change vs reference, between 60 and 180 minutes, obtained in 4 hours): 0.25 µg/mL
F=the rate of change in glucose concentration in relation to the reference ([2]; [Ab] 0,5 µg/mL): 57%
Glucose concentration t=0 ([2]; [Ab] 0,5 µg/mL): 143
Glucose concentration t=60 ([2]; [Ab] 0,5 µg/mL): 154
Glucose concentration t=120 ([2]; [Ab] 0,5 µg/mL): 137
Glucose concentration t=180 ([2]; [Ab] 0,5 µg/mL): 116
Glucose concentration t=240 ([2]; [Ab] 0,5 µg/mL): 78
dC/dT ([2]; [Ab] 0,5 µg/mL): 19
F=the rate of change in glucose concentration in relation to the reference ([2]; [Ab] 0,25 µg/mL): 66%
Glucose concentration t=0 ([2]; [Ab] 0,25 µg/mL): 143
Glucose concentration t=60 ([2]; [Ab] 0,25 µg/mL): 146
Glucose concentration t=120 ([2]; [Ab] 0,25 µg/mL): 140
Glucose concentration t=180 ([2]; [Ab] 0,25 µg/mL): 102
Glucose concentration t=240 ([2]; [Ab] 0,25 µg/mL): 55
dC/dT ([2]; [Ab] 0,25 µg/mL): 22
F=the rate of change in glucose concentration in relation to the reference ([2]; [Ab] 1 µg/mL): 30%
Glucose concentration t=0 ([2]; [Ab] 1 µg/mL): 137
Glucose concentration t=60 ([2]; [Ab] 1 µg/mL): 154
Glucose concentration t=120 ([2]; [Ab] 1 µg/mL): 146
Glucose concentration t=180 ([2]; [Ab] 1 µg/mL): 134
Glucose concentration t=240 ([2]; [Ab] 1 µg/mL): 119
dC/dT ([2]; [Ab] 1 µg/mL): 10
F=the rate of change in glucose concentration in relation to the reference ([2]; [Ab] 2 µg/mL): 12%
Glucose concentration t=0 ([2]; [Ab] 2 µg/mL): 144
Glucose concentration t=60 ([2]; [Ab] 2 µg/mL): 154
Glucose concentration t=180 ([2]; [Ab] 2 µg/mL): 146
Glucose concentration t=240 ([2]; [Ab] 2 µg/mL): 148
dC/dT ([2]; [Ab] 2 µg/mL): 4
F=the rate of change in glucose concentration in relation to the reference ([2]; [Ab] 4 µg/mL): 10%
Glucose concentration t=60 ([2]; [Ab] 4 µg/mL): 157
Glucose concentration t=120 ([2]; [Ab] 4 µg/mL): 147
Glucose concentration t=180 ([2]; [Ab] 4 µg/mL): 150
Glucose concentration t=240 ([2]; [Ab] 4 µg/mL): 149
dC/dT ([2]; [Ab] 4 µg/mL): 4
F=the rate of change in glucose concentration in relation to the reference ([2]; [Ab] 8 µg/mL): 0%
Glucose concentration t=0 ([2]; [Ab] 8 µg/mL): 142
Glucose concentration t=60 ([2]; [Ab] 8 µg/mL): 154
Glucose concentration t=120 ([2]; [Ab] 8 µg/mL): 150
Glucose concentration t=180 ([2]; [Ab] 8 µg/mL): 154
Glucose concentration t=240 ([2]; [Ab] 8 µg/mL): 140
dC/dT ([2]; [Ab] 8 µg/mL): 0
F=the rate of change in glucose concentration in relation to the reference ([2]; [Ab] 16 µg/mL): 0%
Glucose concentration t=0 ([2]; [Ab] 16 µg/mL): 139
Glucose concentration t=60 ([2]; [Ab] 16 µg/mL): 145
Glucose concentration t=120 ([2]; [Ab] 16 µg/mL): 150
Glucose concentration t=180 ([2]; [Ab] 16 µg/mL): 145
Glucose concentration t=240 ([2]; [Ab] 16 µg/mL): 145
dC/dT ([2]; [Ab] 16 µg/mL): 0
F=the rate of change in glucose concentration in relation to the reference ([2]; [Ab] 32 µg/mL): 3%
Glucose concentration t=0 ([2]; [Ab] 32 µg/mL): 144
Glucose concentration t=60 ([2]; [Ab] 32 µg/mL): 148
Glucose concentration t=120 ([2]; [Ab] 32 µg/mL): 145
Glucose concentration t=180 ([2]; [Ab] 32 µg/mL): 146
Glucose concentration t=240 ([2]; [Ab] 32 µg/mL): 145
dC/dT ([2]; [Ab] 32 µg/mL): 1
MIC EUCAST, range in parentheses ([3]; range obtained by EUCAST from ISO 20776-1: 2006): 0.125 to 1 µg/mL
MIC EUCAST ([3]; reference MIC value, EUCAST QC tables Version 7.0, 2017): 0.25 to 0.5 µg/mL
